These results are taken from patent US11192865B2, “Benzosulfonyl compounds” (Vivace Therapeutics, Inc., priority 2017, dated 2021).

This test concerns 8XTBD luciferase reporter. The test is described as follows: YAP Reporter Assay. It counts as cell-based. The note with it: Homo sapiens, HEK-293T; HEK293T cells stably transfected with 8XTBD luciferase reporter and pRLTK; 24-hr incubation; starting from 3 μM, 1:3 dilution, 10 points; read-out: Firefly Luciferase IC50. The procedure: HEK293T cells stably transfected with 8XTBD luciferase reporter and pRLTK in 384-well plates were treated with the test compounds, starting from 3 μM (final concentration in assay plate), 1:3 dilution, and 10 points in quadruplicates. Post 24-hr incubation with compounds at 37° C. and 5% CO2, cells were lysed and 8XTBD-driven firefly luciferase and control TK-driven renilla luciferase activities were measured using Promega Dual-Luciferase Reporter Assay System.
Reagents: The reagents used for this study are: DMEM: Invitrogen #11960077, Dual-Glo Luciferase Assay System: Promega-E2980, Puromycin Dihydrochloride: Invitrogen-A1113803, 384-well plate: PerkinElmer-6007480, L-GLUTAMINE: Invitrogen-25030164, Hygromycin B: Invitrogen-10687010, and Penicillin-Streptomycin: Merk-TMS-AB2-C
Media: The media used for this assay were: Culture Medium: DMEM+1 ug/mL puromycin+200 ug/mL hygromycin (with 10% FBS+1 mM L-glutamine); and Assay Medium: DMEM (with 10% FBS+1 mM L-glutamine+1×P/S).
Cell Plating: The appropriate media was warmed at 37° C. by water bath: Culture Medium, Assay Medium, 1* D-PBS, 0.05% trypsin-EDTA. The cells were trypsinized after removing all media, then washed with 1* sterile D-PBS and then with 2 ml 0.05% trypsin-EDTA. The cells were then incubated at RT for one minute. Then 10 ml/75 cm2 flask Assay Medium was added to each flask. Using a 10 ml pipette, the cells were then gently resuspended in the media, until the clumps completely disappeared. The cells were then transferred into 50 ml centrifuge tubes and were centrifuged at 800 rpm for 5 mins. The medium was removed and the cells were resuspended with Assay Medium. An aliquot of cells was used to count the cell density (cells/ml). The cell suspension was then diluted with Assay Medium to a concentration of 6×10^4 cells/ml. 50 ul cells suspension was then plated to 384-well plate (PerkinElmer-6007480), 3×10^3 cells/well and the cells were incubated in an incubator at 37° C., 5% CO2.
Compound Treatment: In the afternoon (incubation of the plate with 3-4 hrs), the test compounds were added by Echo, starting from 3 uM (final concentration in the assay plate), 1:3 dilution, 10 points, quadruplicates. The plate was placed at 37° C., 5% CO2 incubator for 24 hrs.
Detection: The Dual-Glo Luciferase Reagent was prepared by transferring the contents of one bottle of Dual-Glo Luciferase Buffer to one bottle of Dual-Glo Luciferase Substrate to create the Dual-Glo Luciferase Reagent. Mixing was performed by inversion until the substrate was thoroughly dissolved. After mixing, the reagent was aliquoted into 15 ml tubes. In the afternoon (24 hrs post compound treatment), the DMEM+ medium in the 384 well plates were aspirated by Microplate Washer.
Measuring firefly luciferase activity: 20 ul Dual-Glo Luciferase Reagent was added to the 384-well plates. The plates were protected from light to prevent interference with the assay. The plates were shaken for 1 min followed centrifuging plates at 1000 rpm for 30 seconds. After waiting at least 10 minutes, the firefly luminescence was measured by Envision.
Measuring renilla luciferase activity: 20 ul Stop-Glo Reagent was added to the 384-well plates. The plates were shaken for 1 min and then centrifuged at 1000 rpm for 30 seconds. After waiting at least 10 minutes, the renilla luminescence was measured by Envision.
Compound IC50 and maximum inhibition on the firefly luciferase and renilla luciferase activities were reported separately.
For orientation: Reporter assays use an easily measured gene product as a stand-in for the process of interest.

On to `CNS(=O)(=O)c1ccc(NC2CCCC(F)(F)C2)c(-c2nnn(C)n2)c1` (centres unmarked) [Compound 73, 4-((3,3-difluorocyclohexyl)amino)-N-methyl-3-(2-methyl-2H-tetrazol-5-yl)benzenesulfonamide], for which the IC50 was at most 0.1 µM.
Regarding `CNS(=O)(=O)c1ccc(NC2CCCCC2)c(-c2cccnc2)c1` [Compound 77, 4-(cyclohexylamino)-N-methyl-3-(pyridin-3-yl)benzenesulfonamide], the IC50 was over 3 µM.
For `CNS(=O)(=O)c1ccc(NC2CCCCC2)c(-c2nnn(CC(F)(F)F)n2)c1` [Compound 39, 4-(cyclohexylamino)-N-methyl-3-(2-(2,2,2-trifluoroethyl)-2H-tetrazol-5-yl)benzenesulfonamide], the IC50 lay in the range of 0.1 to 1 µM.
Regarding `CNS(=O)(=O)c1ccc(Nc2ccc(C(F)(F)F)c(Cl)c2)c(-c2cn(C)cn2)c1` [Compound 148, 4-[3-Chloro-4-(trifluoromethyl)anilino]-N-methyl-3-(1-methylimidazol-4-yl)benzenesulfonamide], the IC50 is at most 0.1 µM.
To `CCn1nnc(-c2cc(S(=O)(=O)NC)ccc2NC2CCCCC2)n1` [Compound 14, 4-(cyclohexylamino)-3-(2-ethyl-2H-tetrazol-5-yl)-N-methylbenzenesulfonamide] belongs at most 0.1 µM; to `CNS(=O)(=O)c1ccc(NC2CCCCC2)c(-c2cn(C)cn2)c1` [Compound 82, 4-(cyclohexylamino)-N-methyl-3-(1-methyl-1H-imidazol-4-yl)benzenesulfonamide], at most 0.1 µM.
For `CS(=O)(=O)c1ccc(NC2CCCCC2)c(-c2nn[nH]n2)c1` [Compound 4, N-cyclohexyl-4-(methylsulfonyl)-2-(2H-tetrazol-5-yl)aniline], the IC50 was over 3 µM.
For the compound `CNS(=O)(=O)c1ccc(NC2CCCCC2)c(-c2nnn(C3CCCN(c4ccccc4)C3)n2)c1` (centres unmarked) [Compound 63, 4-(cyclohexylamino)-N-methyl-3-(2-(1-phenylpiperidin-3-yl)-2H-tetrazol-5-yl)benzenesulfonamide], the IC50 was over 3 µM.
Turning to `CNS(=O)(=O)c1ccc(NC2CCCCC2)c(-c2nc(C)no2)c1` [Compound 91, 4-(cyclohexylamino)-N-methyl-3-(3-methyl-1,2,4-oxadiazol-5-yl)benzenesulfonamide], the IC50 lay within 0.1 to 1 µM.
For the compound `CNS(=O)(=O)c1ccc(NC2CCCCC2)c(-c2nnn(C3CN(C(=O)OC(C)(C)C)C3)n2)c1` [Compound 25, tert-butyl 3-(5-(2-(cyclohexylamino)-5-(N-methylsulfamoyl)phenyl)-2H-tetrazol-2-yl)azetidine-1-carboxylate], the IC50 is over 3 µM.
For `CCCCn1nnc(-c2cc(S(=O)(=O)NC)ccc2NC2CCCCC2)n1` [Compound 21, 3-(2-butyltetrazol-5-yl)-4-(cyclohexylamino)-N-methyl-benzenesulfonamide], the 50% inhibitory concentration (IC50) was at most 0.1 µM.
As for `CNc1cccc(-c2cc(S(=O)(=O)NC)ccc2NC2CCCCC2)n1` [Compound 85, 4-(cyclohexylamino)-N-methyl-3-(6-(methylamino)pyridin-2-yl)benzenesulfonamide], the IC50 lay in the range of 1 to 3 µM.
Consider `CNS(=O)(=O)c1ccc(Nc2ccccc2OC(F)(F)F)c(-c2nnnn2C)c1` [Compound 101, N-methyl-3-(1-methyl-1H-tetrazol-5-yl)-4-((2-(trifluoromethoxy)phenyl)amino)benzenesulfonamide], for which the IC50 was over 3 µM.
With `CNS(=O)(=O)c1ccc(NC2CCCCC2)c(-c2cncnc2)c1` [Compound 55, 4-(cyclohexylamino)-N-methyl-3-(pyrimidin-5-yl)benzenesulfonamide], the IC50 is over 3 µM.
Regarding `CNS(=O)(=O)c1ccc(NC2CCCCC2)c(-c2nnn(C3CCCC3)n2)c1` [Compound 18, 4-(cyclohexylamino)-3-(2-cyclopentyl-2H-tetrazol-5-yl)-N-methylbenzenesulfonamide], the IC50 is 0.1 to 1 µM.
For the compound `CNS(=O)(=O)c1ccc(NC2CCCCC2)c(-c2nnn(C3CCN(C(=O)OC(C)(C)C)C3)n2)c1` (centres unmarked) [Compound 24, tert-butyl 3-(5-(2-(cyclohexylamino)-5-(N-methylsulfamoyl)phenyl)-2H-tetrazol-2-yl)pyrrolidine-1-carboxylate], the IC50 is over 3 µM.
As to `CNS(=O)(=O)c1ccc(Nc2ccc(OC(F)(F)F)cc2)c(-c2nnn(C)n2)c1` [Compound 103, N-methyl-3-(2-methyl-2H-tetrazol-5-yl)-4-((4-(trifluoromethoxy)phenyl)amino)benzenesulfonamide], the IC50 is at most 0.1 µM.
`CNS(=O)(=O)c1ccc(NC2CCCCC2)c(-c2ccncc2)c1` [Compound 65, 4-(cyclohexylamino)-N-methyl-3-(pyridin-4-yl)benzenesulfonamide]: the IC50 was over 3 µM.
Then `CNS(=O)(=O)c1ccc(NC2CCCCC2)c(-c2nnn(C3CCCN(S(C)(=O)=O)C3)n2)c1` (centres unmarked) [Compound 62, 4-(cyclohexylamino)-N-methyl-3-(2-(1-(methylsulfonyl)piperidin-3-yl)-2H-tetrazol-5-yl)benzenesulfonamide], with over 3 µM; and `CNS(=O)(=O)c1ccc(N[C@H]2CC[C@H](C(F)(F)F)CC2)c(-c2cn(C)cn2)c1` [Compound 151, N-methyl-3-(1-methyl-1H-imidazol-4-yl)-4-(((1r,4r)-4-(trifluoromethyl)cyclohexyl)amino) benzenesulfonamide], with at most 0.1 µM.
Consider `CNS(=O)(=O)c1ccc(Nc2cc(C(F)(F)F)cc(C(F)(F)F)c2)c(-c2cn(C)cn2)c1` [Compound 146, 4-[3,5-Bis(trifluoromethyl)anilino]-N-methyl-3-(1-methylimidazol-4-yl)benzenesulfonamide], for which the IC50 was 0.1 to 1 µM.
In the case of `CS(=O)(=O)c1ccc(NC2CCCCC2)c(-n2nccn2)c1` [Compound 13, N-cyclohexyl-4-(methylsulfonyl)-2-(2H-1,2,3-triazol-2-yl)aniline], the IC50 was in the range of 0.1 to 1 µM.
In the case of `CNS(=O)(=O)c1ccc(NC2CCCCC2)c(-c2nnn(-c3ccc(F)cc3)n2)c1` [Compound 16, 4-(cyclohexylamino)-3-(2-(4-fluorophenyl)-2H-tetrazol-5-yl)-N-methylbenzenesulfonamide], the IC50 is 0.1 to 1 µM.
Regarding `CNS(=O)(=O)c1ccc(NC2CCCCC2)c(-c2nc(C)n(C)n2)c1` [Compound 67, 4-(cyclohexylamino)-3-(1,5-dimethyl-1H-1,2,4-triazol-3-yl)-N-methylbenzenesulfonamide], the IC50 is at most 0.1 µM.
To `CNS(=O)(=O)c1ccc(NC2CCCCC2)c(-c2nnn(C3CCC3)n2)c1` [Compound 17, 3-(2-cyclobutyl-2H-tetrazol-5-yl)-4-(cyclohexylamino)-N-methylbenzene sulfonamide] belongs at most 0.1 µM.
For the compound `CNS(=O)(=O)c1ccc(NC2CCCCC2)c(-c2nnn(C3CCN(C(=O)OC(C)C)CC3)n2)c1` [Compound 47, isopropyl 4-(5-(2-(cyclohexylamino)-5-(N-methylsulfamoyl)phenyl)-2H-tetrazol-2-yl)piperidine-1-carboxylate], the IC50 is over 3 µM.
In the case of `CCn1cncc1-c1cc(S(=O)(=O)NC)ccc1NC1CCCCC1` [Compound 114, 4-(cyclohexylamino)-3-(1-ethyl-1H-imidazol-5-yl)-N-methylbenzenesulfonamide], the IC50 was over 3 µM.
With `CNS(=O)(=O)c1ccc(NC2CCCCC2)c(-c2nnn(C3CNC3)n2)c1` [Compound 54, 3-(2-(azetidin-3-yl)-2H-tetrazol-5-yl)-4-(cyclohexylamino)-N-methylbenzenesulfonamide], the IC50 was over 3 µM.
Turning to `CNc1ccnc(-c2cc(S(=O)(=O)NC)ccc2NC2CCCCC2)c1` [Compound 88, 4-(cyclohexylamino)-N-methyl-3-(4-(methylamino)pyridin-2-yl)benzenesulfonamide], the half-inhibitory concentration (IC50) was at most 0.1 µM.

One may read the IC50 as the point on the concentration scale where inhibition reaches its midpoint.
